Columns and labels:
[1] = test system: Isogenic viruses containing one or two specific mutations in the gp41 transmembrane envelope protein; experiment: T-20 susceptibility of isogenic viruses with gp41 mutations (FIG. 4B); type: cell-based, HIV; conditions: cells expressing CD4, CCR5 and CXCR4, gp41 mutants vs wild type
Description: Cells expressing CD4, CCR5 and CXCR4 were infected in the absence of T-20 and over a wide range of T-20 concentrations (x-axis log 10 scale). The percent inhibition of viral replication (y-axis) was determined by comparing the amount of luciferase produced in infected cells in the presence of T-20 to the amount of luciferase produced in the absence of T-20. Isogenic viruses containing one or two specific mutations in the gp41 transmembrane envelope protein were tested (highlighted in red in the figure legend). Drug susceptibility is quantified by determining the concentration of T-20 required to inhibit 50% of viral replication (IC50, shown as vertical dashed lines). […]
(§1) Drug susceptibility and tropism testing was performed using pHIVenv and pHIVluc or pHIVlucΔU3. […] After infection ([…]) the target cells were lysed and luciferase activity was measured. […] The amount of luciferase activity detected in the infected cells was used as a direct measure of “infectivity” (FIGS. 1 and 2). […] Drug susceptibility was assessed by comparing the infectivity in the absence of drug to infectivity in the presence of drug. Relative drug susceptibility can be quantified by comparing the susceptibility of the “test” virus to the susceptibility of a well-characterized reference virus (wild type) derived from a molecular clone of HIV-1, for example NL4-3 or PIXB2.

[2] = test system: dual-R clone 21d; experiment: Entry inhibitor susceptibility, pseudotyped HIV-1 entry (luciferase) assay, env clone 21d (c21); type: cell-based; conditions: dual-R clone 21d compared to R5-, X4- and dual-X tropic clones
Description: (§2) Susceptibility assays for HIV-1 entry inhibitors were performed using packaging host cells consisting of the human embryonic kidney cell line 293 (Cell Culture Facility, UC San Francisco, SF, Calif.) and target host cells consisting of a human osteosarcoma (HOS) cell line expressing CD4 (HT4) plus CCR5, and CXCR4, astrocytoma (U-87) cell lines expressing either CD4 and CCR5 or CD4 and CXCR4, or glioma (NP2) cell lines expressing CD4 and either CCR5 or CXCR4.
as §1
(§3) The ability of a virus to enter a cell was assessed by comparing the amount of luciferase activity produced in each cell type, e.g., cells expressing CD4 and either CCR5 or CXCR4, both in the presence and absence of drug. […]

[3] = test system: dual-R clone 86d; experiment: Entry inhibitor susceptibility, pseudotyped HIV-1 entry (luciferase) assay, env clone 86d (c86); type: cell-based
Description: as §2, §1, §3

[4] = test system: dual-X clone 88D; experiment: Entry inhibitor susceptibility, pseudotyped HIV-1 entry (luciferase) assay, env clone 88D (c88); type: cell-based; conditions: Human immunodeficiency virus 1; clone c88, tropism dual; read-out: Sensitivity of Entry Inhibitors
Description: as §2, §1, §3

[5] = test system: X4-tropic clone 42x; experiment: Entry inhibitor susceptibility, pseudotyped HIV-1 entry (luciferase) assay, env clone 42x (c42); type: cell-based
Description: as §2, §1, §3

[6] = test system: dual-X clone 11D; experiment: Entry inhibitor susceptibility, pseudotyped HIV-1 entry (luciferase) assay, env clone 11D (c11); type: cell-based; conditions: Human immunodeficiency virus 1; clone c11, tropism dual; read-out: Sensitivity of Entry Inhibitors
Description: as §2, §1, §3

Compound: enfuvirtide
- susceptibility to fusion inhibitor (in words) [1]: reduced susceptibility
- fold-reduced susceptibility [2]: 4-5 fold
- fold-reduced susceptibility ([3]; dual-R clone 86d compared to R5-, X4- and dual-X tropic clones): 4-5 fold

Compound: c1cc(CN2CCCNCCNCCCNCC2)ccc1CN1CCCNCCNCCCNCC1 [AMD]
- IC50 [4]: 8.7 nM
- IC50 ([5]; Human immunodeficiency virus 1, clone c42, tropism X4, read-out: Sensitivity of Entry Inhibitors): 45.8 nM
- sensitivity compared to other clones (in words) ([5]; X4 clone 42d (so in the source)): subtle reduction in sensitivity
- IC50 [6]: 3.4 nM
- IC50 ([3]; Human immunodeficiency virus 1, clone c86, tropism dual-R, read-out: Sensitivity of Entry Inhibitors): 5.6 nM

— patent US10161931B2, “Methods for determining susceptibility to coreceptor inhibitors” (Monogram Biosciences, Inc., priority 2006, dated 2018)
